Laboratory results as given in patent US10266497B2 (ABIDE THERAPEUTICS, INC., priority 2017, dated 2019).
pIC50: −log10 of the molar value.

Tests used:
MAGL [1] = target: T1, MAGL (Homo sapiens, UniProt Q99685); assay: In vitro competitive activity-based protein profiling, MAGL, human; conditions: for inhibition at 1 µM: read-out: MAGL % inh. 1 μM (human)
T1 sequence (Q99685 1-303): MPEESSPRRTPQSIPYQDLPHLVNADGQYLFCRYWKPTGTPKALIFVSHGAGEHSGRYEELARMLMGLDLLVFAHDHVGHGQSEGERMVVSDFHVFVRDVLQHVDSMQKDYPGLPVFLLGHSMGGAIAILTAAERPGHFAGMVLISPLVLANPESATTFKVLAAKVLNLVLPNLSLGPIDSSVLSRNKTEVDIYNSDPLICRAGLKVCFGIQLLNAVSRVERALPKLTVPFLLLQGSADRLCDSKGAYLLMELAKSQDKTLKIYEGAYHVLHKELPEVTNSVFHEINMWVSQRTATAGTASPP
Procedure: Biological Evaluation In Vitro Competitive Activity-Based Protein Profiling.
Proteomes (mouse brain membrane fraction for mouse assays; human prefrontal cortex membrane fractions for human assays) (50 mL, 1.0 mg/mL total protein concentration) were preincubated with varying concentrations of inhibitors at 37° C. After 30 min, FP-Rh (1.0 mL, 50 mM in DMSO) was added and the mixture was incubated for another 30 min at 37° C. Reactions were quenched with SDS loading buffer (15 μL—4λ) and run on SDS-PAGE.

MAGL [2] = target: T2, MAGL (Mus musculus, UniProt O35678); assay: In vitro competitive activity-based protein profiling, MAGL, mouse; conditions: read-out: MAGL % inh. 1 μM (mouse)
T2 sequence (O35678 1-303): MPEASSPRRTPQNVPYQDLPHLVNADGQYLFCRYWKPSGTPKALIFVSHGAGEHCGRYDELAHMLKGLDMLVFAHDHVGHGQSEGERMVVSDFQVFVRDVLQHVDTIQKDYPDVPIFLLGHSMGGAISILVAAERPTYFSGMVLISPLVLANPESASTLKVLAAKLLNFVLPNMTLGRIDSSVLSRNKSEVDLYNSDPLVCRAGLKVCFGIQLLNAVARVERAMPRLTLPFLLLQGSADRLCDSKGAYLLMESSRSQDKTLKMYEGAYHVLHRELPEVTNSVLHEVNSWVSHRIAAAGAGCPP

FAAH [3] = target: T3, FAAH (Homo sapiens, UniProt O00519); assay: In vitro competitive activity-based protein profiling, FAAH, human; conditions: for inhibition at 1 µM: read-out: FAAH % inh. 1 μM (human)
T3 sequence (O00519 1-579): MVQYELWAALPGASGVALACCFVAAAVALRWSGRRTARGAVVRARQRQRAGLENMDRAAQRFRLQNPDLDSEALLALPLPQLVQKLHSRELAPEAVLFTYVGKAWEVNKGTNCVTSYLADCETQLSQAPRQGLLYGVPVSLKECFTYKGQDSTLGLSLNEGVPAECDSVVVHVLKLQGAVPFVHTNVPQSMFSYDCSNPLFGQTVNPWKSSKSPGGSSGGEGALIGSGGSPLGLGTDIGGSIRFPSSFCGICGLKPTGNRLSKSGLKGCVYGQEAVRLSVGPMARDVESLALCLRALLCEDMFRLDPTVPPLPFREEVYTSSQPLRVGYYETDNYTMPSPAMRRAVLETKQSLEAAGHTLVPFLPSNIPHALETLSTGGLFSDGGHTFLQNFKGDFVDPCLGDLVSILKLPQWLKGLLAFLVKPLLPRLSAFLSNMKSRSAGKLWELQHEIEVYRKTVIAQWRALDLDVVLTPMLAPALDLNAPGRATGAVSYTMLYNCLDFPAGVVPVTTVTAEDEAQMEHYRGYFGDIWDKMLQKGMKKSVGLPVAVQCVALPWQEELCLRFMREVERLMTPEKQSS

FAAH [4] = target: T4, FAAH (Mus musculus, UniProt O08914); assay: In vitro competitive activity-based protein profiling, FAAH, mouse; conditions: read-out: FAAH % inh. 1 μM (mouse)
T4 sequence (O08914 1-579): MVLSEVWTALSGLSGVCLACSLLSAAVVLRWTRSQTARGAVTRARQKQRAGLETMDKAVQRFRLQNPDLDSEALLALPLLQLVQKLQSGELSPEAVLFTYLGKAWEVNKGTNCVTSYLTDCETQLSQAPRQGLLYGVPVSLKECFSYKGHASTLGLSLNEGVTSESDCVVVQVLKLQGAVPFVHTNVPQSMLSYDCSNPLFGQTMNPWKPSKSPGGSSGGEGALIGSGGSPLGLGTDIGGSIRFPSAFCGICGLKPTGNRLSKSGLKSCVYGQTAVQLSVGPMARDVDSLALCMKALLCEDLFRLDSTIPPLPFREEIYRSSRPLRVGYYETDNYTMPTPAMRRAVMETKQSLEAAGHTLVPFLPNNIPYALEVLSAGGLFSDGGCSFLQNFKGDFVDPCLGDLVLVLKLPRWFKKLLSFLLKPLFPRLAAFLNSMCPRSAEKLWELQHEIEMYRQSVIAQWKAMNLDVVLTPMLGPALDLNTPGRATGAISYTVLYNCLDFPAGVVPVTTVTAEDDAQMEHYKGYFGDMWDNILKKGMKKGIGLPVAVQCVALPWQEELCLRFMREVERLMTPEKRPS

Row | pIC50 (MAGL [1]) | inhibition at 1 µM (MAGL [1]) | inhibition at 1 µM (MAGL [2]) | pIC50 (FAAH [3]) | inhibition at 1 µM (FAAH [3]) | inhibition at 1 µM (FAAH [4]) | inhibition at 10 µM (MAGL [1]; read-out: MAGL % inh. (human) at 10 uM) | inhibition at 50 µM (FAAH [3]; read-out: FAAH % inh. (human) at 50 uM) | Compound
1 | 6.00 to 7.00 | > 75% | > 75% | 5.00 to 6.00 | 0 to 25% | 0 to 25% | – | – | O=C(O)c1ccn(C(=O)N2CCC3(CCN(Cc4ccc(Cl)cc4N4CCCC4)C3)CC2)n1 [Example 171, 1-(2-(4-chloro-2-(pyrrolidin-1-yl)benzyl)-2,8-diazaspiro[4.5]decane-8-carbonyl)-1H-pyrazole-3-carboxylic acid]
2 | – | > 75% | > 75% | – | 0 to 25% | 0 to 25% | – | – | CN(Cc1ccc(Cl)cc1N1CCCC1)C1(C)CCN(C(=O)n2ccc(C(=O)O)n2)CC1 [Example 46, 1-(4-((4-chloro-2-(pyrrolidin-1-yl)benzyl)(methyl)amino)-4-methylpiperidine-1-carbonyl)-1H-pyrazole-3-carboxylic acid]
3 | 6.00 to 7.00 | > 75% | > 75% | 6.00 to 7.00 | > 75% | 0 to 25% | – | – | O=C(O)c1ccn(C(=O)N2CCC(OCc3cc(F)cc(Cl)c3)CC2)n1 [Example 42, 1-(4-((3-chloro-5-fluorobenzyl)oxy)piperidine-1-carbonyl)-1H-pyrazole-3-carboxylic acid]
4 | – | > 75% | > 75% | – | 0 to 25% | 0 to 25% | – | – | O=C(O)c1ccn(C(=O)N2CCN(Cc3cccc(-c4ncccn4)c3)CC2)n1 [Example 64, 1-(4-(3-(pyrimidin-2-yl)benzyl)piperazine-1-carbonyl)-1H-pyrazole-3-carboxylic acid]
5 | – | > 75% | > 75% | – | 0 to 25% | 0 to 25% | – | – | C[C@@H]1CC[C@H](C)N1c1cc(C(F)(F)F)ccc1CN1CCN(C(=O)n2ccc(C(=O)O)n2)CC1 [Example 94, 1-(4-(2-((2R,5S)-2,5-dimethylpyrrolidin-1-yl)-4-(trifluoromethyl)benzyl)piperazine-1-carbonyl)-1H-pyrazole-3-carboxylic acid]
6 | – | – | – | – | 0 to 25% | 0 to 25% | – | – | C[C@@H]1CC[C@H](C)N1c1cc(C(F)(F)F)ccc1CN(C)C1(C)CCN(C(=O)n2ccc(C(=O)O)n2)CC1 [Example 160, 1-(4-((2-((2R,5S)-2,5-dimethylpyrrolidin-1-yl)-4-(trifluoromethyl)benzyl)(methyl)amino)-4-methylpiperidine-1-carbonyl)-1H-pyrazole-3-carboxylic acid]
7 | – | > 75% | > 75% | – | > 75% | > 75% | – | – | O=C(O)c1ccn(C(=O)N2CCN(Cc3cc(F)cc(Oc4ccc(Cl)cc4)c3)CC2)n1 [Example 161, 1-(4-(3-(4-chlorophenoxy)-5-fluorobenzyl)pipera-zine-1-carbonyl)-1H-pyrazole-3-carboxylic acid]
8 | – | > 75% | > 75% | – | > 75% | 50 to 75% | – | – | Cc1cc(CO[C@H]2C[C@@H]3CN(C(=O)n4ccc(C(=O)O)n4)C[C@@H]3C2)ccc1C(F)(F)F [Example 172, 1-(trans-5-((3-methyl-4-(trifluoromethyl)benzyl)oxy)octa-hydrocyclopenta[c]pyrrole-2-carbonyl)-1H-pyrazole-3-carboxylic acid]
9 | – | 25 to 50% | 0 to 25% | – | 50 to 75% | > 75% | – | – | O=C(O)c1ccn(C(=O)N2CC3CN(Cc4cc(F)cc(Cl)c4)CC3C2)n1 (stereo not shown) [Example 115, 1-(5-(3-chloro-5-fluorobenzyl)octa-hydropyrrolo[3,4-c]pyrrole-2-carbonyl)-1H-pyrazole-3-carboxylic acid]
10 | – | > 75% | > 75% | – | 0 to 25% | 0 to 25% | – | – | Cc1ccc(CN2CCN(C(=O)n3ccc(C(=O)O)n3)CC2)c(-c2nnco2)c1 [Example 66, 1-(4-(4-methyl-2-(1,3,4-oxadiazol-2-yl)benzyl)piperazine-1-carbonyl)-1H-pyrazole-3-carboxylic acid]
11 | – | – | 0 to 25% | – | – | 0 to 25% | > 75% | > 75% | O=C(O)c1nn(C(=O)N2CC3CN(Cc4ccc(-c5nnn[nH]5)cc4C(F)(F)F)CC3C2)cc1Cl (stereo not shown) [Example 141, 1-(5-(4-(1H-tetrazol-5-yl)-2-(trifluoromethyl)benzyl)octahydro-pyrrolo[3,4-c]pyrrole-2-carbonyl)-4-chloro-1H-pyrazole-3-carboxylic acid]
12 | – | > 75% | 50 to 75% | – | 0 to 25% | 50 to 75% | – | – | O=C(O)c1ccn(C(=O)N2CCC3(CCN(Cc4ccc(Oc5ccc(Cl)cc5)cc4)C3)CC2)n1 [Example 75, 1-(2-(4-(4-chlorophenoxy)benzyl)-2,8-diazaspiro[4.5]decane-8-carbonyl)-1H-pyrazole-3-carboxylic acid]
13 | – | – | – | – | > 75% | 25 to 50% | – | – | O=C(O)c1ccn(C(=O)N2C[C@H]3C[C@H](OCc4ccccc4Cl)C[C@H]3C2)n1 [Example 15, 1-(trans-5-((2-Chlorobenzyl)oxy)octahydrocyclopenta[c]pyrrole-2-carbonyl)-1H-pyrazole-3-carboxylic Acid]
14 | – | – | – | – | 0 to 25% | 0 to 25% | – | – | C[C@@H]1CC[C@H](C)N1c1cc(C(F)(F)F)ccc1CN1CCCC12CCN(C(=O)n1ccc(C(=O)O)n1)CC2 [Example 80, 1-(1-(2-((2R,5S)-2,5-dimethylpyrrolidin-1-yl)-4-(trifluoromethyl)benzyl)-1,8-diazaspiro[4.5]decane-8-carbonyl)-1H-pyrazole-3-carboxylic acid]
15 | – | – | > 75% | – | – | > 75% | – | – | NC(=O)c1ccn(C(=O)N2CCN(Cc3cccc(Oc4ccccc4)c3)CC2)n1 [Example 198, 1-(4-(3-phenoxybenzyl)pi-perazine-1-carbonyl)-1H-pyrazole-3-carboxamide]
16 | – | – | > 75% | – | – | > 75% | – | – | NC(=O)c1ccn(C(=O)N2CC3CN(Cc4ccc(N5CCOCC5)cc4C(F)(F)F)CC3C2)n1 (stereo not shown) [Example 17, 1-(5-(4-Morpholino-2-(trifluoromethyl)benzyl)octahydropyrrolo[3,4-c]pyrrole-2-carbonyl)-1H-pyrazole-3-carboxamide]
17 | – | – | > 75% | – | – | 25 to 50% | – | – | O=C(O)c1ccn(C(=O)N2CC3CN(Cc4ccc(C(F)(F)F)cc4)CC3C2)n1 (stereo not shown) [Example 96, 1-(5-(4-(trifluoromethyl)benzyl)octahydro-pyrrolo[3,4-c]pyrrole-2-carbonyl)-1H-pyrazole-3-carboxylic acid]

Row | Compound | pIC50 (MAGL [1]) | inhibition at 1 µM (MAGL [1]) | inhibition at 1 µM (MAGL [2]) | pIC50 (FAAH [3]) | inhibition at 1 µM (FAAH [3]) | inhibition at 1 µM (FAAH [4]) | inhibition at 10 µM (MAGL [1]; read-out: MAGL % inh. (human) at 10 uM) | inhibition at 50 µM (FAAH [3]; read-out: FAAH % inh. (human) at 50 uM)
18 | O=C(O)c1ccn(C(=O)N2C[C@H]3C[C@@H](OCc4ccccc4Cl)C[C@H]3C2)n1 [Example 41, 1-(cis-5-((2-chlorobenzyl)oxy)octahydrocyclo-penta[c]pyrrole-2-carbonyl)-1H-pyrazole-3-carboxylic acid] | – | > 75% | 0 to 25% | – | > 75% | 0 to 25% | – | –
